Reference: patent US20050186230A1, “Elemene compositions containing liquid oil” (SD Pharmaceuticals, Inc., priority 2004, published 2005)
Read-outs that look alike come from different tables or passages of the source.

Assays:
[1] = system: murine Ehrlich ascites carcinoma; conditions: cited from earlier work
[2] = system: rat ascitic reticulum cell sarcoma; conditions: material contained beta-elemene 65%; cited from earlier work
K562 leukemia cells = conditions: cited from earlier work
[3] = Solubility of elemenes in water; type: physicochemical; conditions: found by the inventor
cerebral carcinoma = conditions: combination of the elemene and local chemotherapy; cited from earlier work
[4] = system: promyelocytic leukemia HL 60 cells; conditions: cited from earlier work
[5] = system: erythroleukemia K562 cells; conditions: cited from earlier work
[6] = system: peripheral blood leukocytes (PBL); conditions: cited from earlier work
[7] = system: human leukemia K562 cells; conditions: cited from earlier work
[8] = background statement; cited from earlier work
[9] = system: brain tumors (neuroglioma), liver and esophageal cancers; conditions: 2 year clinical trial in China; cited from earlier work

Row | Molecule | anti-tumor activity ([1]; murine Ehrlich ascites carcinoma, material contained beta-elemene 65%) | side effects during treatment ([1]; murine and rat tumor models) | anti-tumor activity [2] | apoptosis of K562 leukemia cells (K562 leukemia cells) | solubility in water [3] | patients reaching complete remission level (cerebral carcinoma) | in vitro IC50 [4] | in vitro IC50 [5] | in vitro IC50 [6] | apoptosis of K562 cells [7] | bcl-2 protein expression in K562 cells [7] | solubility in water [8] | clinical effect [9]
1 | C=CC1(C)CCC(C(=C)C)CC1C(=C)C (stereo not drawn) [beta-elemene, 1-methyl-1-vinyl-2,4-diisoprotenyl-cyclohexane] | marked anti-tumor activity | Diarrhea and weight loss | marked anti-tumor activity | induces apoptosis |  |  |  |  |  |  |  |  | 
2 | elemene |  |  |  |  | some solubility in water | 27% | 27.5 µg/mL | 81 µg/mL | 254.3 µg/mL | induces apoptosis | down-regulation of bcl-2 protein | insoluble in water | beneficial effects on brain tumors (neuroglioma), liver and esophageal cancers
